This passage reports Ki results from ChEMBL document CHEMBL3886280, “Nicotinic receptor compounds” (2015).

SMILES strings stand for the structures.

For this experiment, the target named is Neuronal acetylcholine receptor subunit alpha-7 (Rattus norvegicus, UniProt Q05941). The experiment can be described thus: Inhibition Assay: Compounds ([…]) were also evaluated for inhibition of binding to a7 nAChR using [125I]iodoMLA as previously reported in Carroll et al. The binding assays were conducted and the Ki values calculated as described in Carroll, F. I. et al., "Synthesis, nicotinic acetylcholine receptor binding, and antinociceptive properties of 2-exo-2-(2',3'-disubstituted 5'-pyridinyl)-7- ….
Neuronal acetylcholine receptor subunit alpha-7, sequence (Q05941 whole entry): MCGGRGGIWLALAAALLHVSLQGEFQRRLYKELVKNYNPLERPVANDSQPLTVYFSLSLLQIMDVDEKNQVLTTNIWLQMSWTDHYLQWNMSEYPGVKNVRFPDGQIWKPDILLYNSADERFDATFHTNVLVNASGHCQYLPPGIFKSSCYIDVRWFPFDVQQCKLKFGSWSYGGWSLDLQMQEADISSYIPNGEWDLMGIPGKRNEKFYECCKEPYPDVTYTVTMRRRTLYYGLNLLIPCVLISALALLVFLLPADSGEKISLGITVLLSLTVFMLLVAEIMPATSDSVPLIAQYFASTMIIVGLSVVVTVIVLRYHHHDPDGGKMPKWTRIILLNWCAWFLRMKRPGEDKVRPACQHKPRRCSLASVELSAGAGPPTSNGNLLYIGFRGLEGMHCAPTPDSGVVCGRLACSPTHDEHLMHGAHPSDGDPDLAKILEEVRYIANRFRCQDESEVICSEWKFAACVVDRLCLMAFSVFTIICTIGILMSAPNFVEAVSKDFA

One may read the Ki as the dissociation constant of the complex between target and ligand, obtained from inhibition or displacement.

For `Fc1ncc(C2CC3CCC2N3)cc1-c1ccccc1` (racemic), the Ki was > 2000 nM.

Turning to `Fc1ncc(C2CC3CCC2N3)cc1-c1cccc(Cl)c1` (configuration not stated), the Ki is > 2000 nM.
